{"source": "patent US20220090021A1", "about": "“IN VITRO HUMAN BLOOD BRAIN BARRIER” (Massachusetts Institute of Technology, priority 2019, published 2022)", "key": {"iBBB [1]": {"system": "iBBB", "description": "To more fully assess the barrier properties of the iBBB we compared the paracellular permeability of molecules with molecular weights ranging from 0.1 to 80 kDa. […] To rule out the possibility that the reduced permeability of the iBBB was simply the result of additional layers of cells, we layered on top of BECs double the normal number of pericyte-only, astrocytes-only or a non-relevant cell type, mouse embryonic fibroblasts (MEFs).\nThe genotype distinction between APOE4/4 cells (isogenic) and APOE3/3 (parental) was assessed in terms of permeability of an iBBB membrane. FIG. 13A presents a schematic showing the iBBB with fluorescent molecules positioned on the Apical surface, which are then allowed to transition through the iBBB from the Apical surface to the Basolateral surface (FIG. 13B)."}, "APOE": {"system": "APOE", "assay": "APOE gene expression in iPSC-derived pericytes after two weeks of CaN inhibition (qRT-PCR)", "type": "cell-based, human", "experimental": "Total RNA was isolated using Trizol and zymogen RNA-direct spin column treated with DNAse on column of 30 minutes prior to washing and elution. For RT-PCRs, 500 ng of total RNA was reverse transcribed into cDNA with iScript (BioRad). Expression was quantified by SsoFast EvaGreen supermix (BioRad). For RNAsequencing, extracted total RNA was subject to QC using an Advanced Analytical-fragment Analyzer before library preparation using Illumina Neoprep stranded RNA-seq library preparation kit. Libraries were pooled for sequencing using Illumina HiSeq2000 or NextSeq500 platforms at the MIT Biomicro Center. The raw fastq data were aligned to human hg19 assembly using STAR 2.4.0 RNA-seq aligner. Mapped RNA-seq reads covering the edited APOE3/4 site were used to validate data genotypes. Gene raw counts were generated from the mapped data using feature Counts tool. The mapped reads were also processed by Cufflinks2.2 with hg19 reference gene annotation to estimate transcript abundances. Gene differential expression test between APOE3 and APOE4 groups of each cell type was performed using Cuffdiff module with adjusted q-value <0.05 for statistical significance. Geometric method was chosen as the library normalization method for Cuffdiff. Color-coded scatterplots were used to visualize group FPKM values for differentially expressed genes and other genes."}, "E3/3 iBBB": {"system": "E3/3 iBBB", "assay": "Amyloid accumulation in E3/3 iBBB exposed to conditioned media from inhibitor-treated E4/4 pericytes", "type": "cell-based, human", "conditions": "media harvested from inhibitor-treated E4/4 pericytes, versus DMSO", "protocol": "(§1) Amyloid accumulation was determined using both neuronal cell conditioned media and 20 nM recombinant labeled Hilyte fluor 488 β-amyloid (1-40) (Anaspec, AS-60491-01) and β-amyloid (1-42) (Anaspec, AS-60479-01) resuspended in PBS. Aβ accumulation for each cell line and experimental permutation was determined from 2D cultures containing all three cells types containing same ratio of cells as 3D experiments. Total area positive for Aβ was divided by the total number of nuclei and normalized to experimental controls. At least four images for each biological replicate were analyzed and for each condition at least three biological replicates were employed. 2D quantifications were corroborated by 3D imaging and analysis.\nWe then added 20 nM Aβ1-40/42-FITC to the cultures for an additional 48 hours after which we quantified the accumulation of AP-FITC for each condition."}, "iBBB [2]": {"system": "iBBB", "assay": "Amyloid (Aβ-FITC) accumulation in iBBB", "type": "cell-based, human", "conditions": "APOE3/3 iBBB; APOE raised to approximately 200 ng/ml, E3 or E4; labeled Aβ for 96 hours", "protocol": "as §1"}}}
{"compound": "Aβ42-FITC: FITC-labeled amyloid-β 1-42 peptide", "values": [{"measurement": "permeability and accumulation on the Basolateral surface, APOE4/4 iBBB versus parental APOE3/3 iBBB", "setting": "iBBB [1]", "result": "greater permeability"}]}
{"compound": "transferrin: fluorescently labeled Transferrin (ThermoFisher T-13342), permeability tracer", "values": [{"measurement": "permeability and accumulation on the Basolateral surface, APOE4/4 iBBB versus parental APOE3/3 iBBB", "setting": "iBBB [1]", "result": "greater permeability"}]}
{"compound": "O=C1C=CC(=O)C2=C1C1c3ccccc3C2c2ccccc21", "note": "[INCA6]", "values": [{"measurement": "APOE expression", "setting": "APOE; APOE4/4 pericytes, two weeks, CsA 2 μM, FK506 5 μM, INCA6 5 μM, qRT-PCR", "result": "significantly reduced"}, {"measurement": "expression of APOE", "setting": "APOE; E3/4 heterozygous pericytes from three individuals", "result": "significant reduction"}, {"measurement": "amyloid accumulation", "setting": "E3/3 iBBB", "result": "significantly reduced"}]}
{"compound": "recombinant human APOE protein: recombinant human APOE protein (E3 or E4) added to iBBB culture media", "values": [{"measurement": "Aβ accumulation", "setting": "iBBB [2]", "result": "increase"}]}
